# Assay: Stability of 4-(4-fluorobenzylamino)-1-methylpiperidine (oil) and its trihydrate stored in a sealed container, purity and impurities over time
# Type: physicochemical
# Settings: for decrease in purity: crude oil, sealed container
# Description: The stability of the crude 4-(4-fluorobenzylamino)-1-methylpiperidine oil obtained by the process described in Example 1 was also assessed.
# The crude 4-(4-fluorobenzylamino)-1-methylpiperidine oil decreased in purity by 0.5% after 1 month and 0.7% after 2.5 months.
# [1] = Batch 3, sealed container, 0 months
# [2] = Batch 3, sealed container, 1 month
# [3] = Batch 4, sealed container, 0 months
# [4] = Batch 4, sealed container, 2.5 months
SMILES,Amine purity [1],impurity I (% impurity) [1],impurity II (% impurity) [1],impurity III (% impurity) [1],Amine purity [2],impurity I (% impurity) [2],impurity II (% impurity) [2],impurity III (% impurity) [2],Amine purity [3],impurity I (% impurity) [3],impurity II (% impurity) [3],impurity III (% impurity) [3],Amine purity [4],impurity I (% impurity) [4],impurity II (% impurity) [4],impurity III (% impurity) [4],decrease in purity (after 1 month),decrease in purity (after 2.5 months),stability on storage (decomposition) (stored under the same conditions as the amine oil (sealed container))
CN1CCC(NCc2ccc(F)cc2)CC1 [4-(4-fluorobenzylamino)-1-methylpiperidine],Amine - 98.17% pure,I/(0.21) %,II/(0.12) %,III/(0.27) %,Amine - 97.66% pure,I/(0.26) %,II/(0.21) %,III/(0.59) %,Amine - 97.82% pure,I/(0.23) %,II/(0.12) %,III/(0.68) %,Amine - 97.09% pure,I/(0.18) %,II/(0.14) %,III/(1.15) %,0.5%,0.7%,
CN1CCC(NCc2ccc(F)cc2)CC1 [4-(4-fluorobenzylamino)-1-methylpiperidine trihydrate],,,,,,,,,,,,,,,,,,,"stable, and no decomposition was observed"

# Source: patent US12215081B2, “Pharmaceutical intermediate” (ZAKLADY FARM[…] S.A., priority 2019, dated 2025)
